Test results taken from the kinase profiling compilation of Christmann-Franck et al. (2016).

Key:
Assay in all cases: radiometric filter-binding kinase assay
[1] = biological target: ABL1 (human) (UniProt P00519)
[2] = biological target: TLK1 (human) (UniProt Q9UKI8)
[3] = biological target: ZAP70 (human) (UniProt P43403); conditions: compound 1.0 µM
[4] = biological target: PDGFRA (human) (UniProt P16234)
[5] = biological target: ULK1 (human) (UniProt O75385)
[6] = biological target: ULK2 (human) (UniProt Q8IYT8)
[7] = biological target: PTK6 (human) (UniProt Q13882)
[8] = biological target: AURKB (human) (UniProt Q96GD4)
[9] = biological target: TSSK1B (human) (UniProt Q9BXA7)
[10] = biological target: MAP4K3 (human) (UniProt Q8IVH8)
[11] = biological target: STK16 (human) (UniProt O75716); conditions: compound 10.0 µM
[12] = biological target: TTBK1 (human) (UniProt Q5TCY1)
[13] = biological target: TESK1 (human) (UniProt Q15569)
[14] = biological target: MAP4K5 (human) (UniProt Q9Y4K4)
[15] = biological target: DDR2 (human) (UniProt Q16832)
[16] = biological target: PHKG1 (human) (UniProt Q16816)
[17] = biological target: STK24 (human) (UniProt Q9Y6E0)
[18] = biological target: CSNK1G2 (human) (UniProt P78368)
[19] = biological target: SIK3 (human) (UniProt Q9Y2K2)
[20] = biological target: EIF2AK3 (human) (UniProt Q9NZJ5)
[21] = biological target: TEK (human) (UniProt Q02763)
[22] = biological target: PRKCG (human) (UniProt P05129)
[23] = biological target: WNK1 (human) (UniProt Q9H4A3)
[24] = system: OXSR1 (human), O95747 [T185E]
[25] = biological target: SIK2 (human) (UniProt Q9H0K1)
[26] = biological target: STK33 (human) (UniProt Q9BYT3)
[27] = biological target: CDK9 CCNT1 (human) (UniProt P50750+O60563)
[28] = biological target: PRKAA1 PRKAB2 PRKAG1 (human) (UniProt O43741+Q13131+P54619)
[29] = biological target: IRAK1 (human) (UniProt P51617)
[30] = biological target: TTBK2 (human) (UniProt Q6IQ55)

CSNK1G2 (human), sequence (P78368 whole entry, looked up): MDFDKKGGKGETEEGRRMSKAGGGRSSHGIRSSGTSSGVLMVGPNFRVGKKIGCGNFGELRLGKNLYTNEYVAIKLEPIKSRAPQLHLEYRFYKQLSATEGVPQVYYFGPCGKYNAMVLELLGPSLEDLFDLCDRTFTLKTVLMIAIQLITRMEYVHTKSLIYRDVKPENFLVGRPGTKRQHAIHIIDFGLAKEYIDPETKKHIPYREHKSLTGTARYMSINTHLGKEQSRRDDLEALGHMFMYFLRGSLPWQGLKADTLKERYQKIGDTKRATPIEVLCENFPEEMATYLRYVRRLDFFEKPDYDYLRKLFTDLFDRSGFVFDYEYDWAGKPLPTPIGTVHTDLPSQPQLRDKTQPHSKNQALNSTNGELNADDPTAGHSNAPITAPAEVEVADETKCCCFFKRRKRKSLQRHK
TLK1 (human), sequence (Q9UKI8 whole entry, looked up): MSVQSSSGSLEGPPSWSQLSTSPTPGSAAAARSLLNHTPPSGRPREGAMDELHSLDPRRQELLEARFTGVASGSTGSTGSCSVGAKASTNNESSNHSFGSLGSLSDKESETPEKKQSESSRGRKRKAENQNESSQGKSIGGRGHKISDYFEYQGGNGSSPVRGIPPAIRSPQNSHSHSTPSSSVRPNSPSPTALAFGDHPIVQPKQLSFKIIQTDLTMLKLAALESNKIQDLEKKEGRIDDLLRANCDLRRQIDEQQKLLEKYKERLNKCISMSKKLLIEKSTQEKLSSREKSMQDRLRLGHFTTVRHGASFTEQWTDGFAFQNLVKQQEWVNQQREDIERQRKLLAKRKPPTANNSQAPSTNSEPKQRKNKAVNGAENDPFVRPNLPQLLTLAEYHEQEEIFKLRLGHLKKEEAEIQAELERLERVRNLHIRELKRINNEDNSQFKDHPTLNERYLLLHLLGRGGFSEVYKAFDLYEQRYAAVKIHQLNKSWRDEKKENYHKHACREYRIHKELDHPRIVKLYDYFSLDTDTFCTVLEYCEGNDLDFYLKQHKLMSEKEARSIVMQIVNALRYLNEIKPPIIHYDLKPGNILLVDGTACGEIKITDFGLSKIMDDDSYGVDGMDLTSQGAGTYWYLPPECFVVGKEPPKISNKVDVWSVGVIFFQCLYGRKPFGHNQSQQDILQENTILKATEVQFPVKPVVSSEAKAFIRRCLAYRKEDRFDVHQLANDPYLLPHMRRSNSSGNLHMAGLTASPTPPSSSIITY
SIK3 (human), sequence (Q9Y2K2 whole entry, looked up): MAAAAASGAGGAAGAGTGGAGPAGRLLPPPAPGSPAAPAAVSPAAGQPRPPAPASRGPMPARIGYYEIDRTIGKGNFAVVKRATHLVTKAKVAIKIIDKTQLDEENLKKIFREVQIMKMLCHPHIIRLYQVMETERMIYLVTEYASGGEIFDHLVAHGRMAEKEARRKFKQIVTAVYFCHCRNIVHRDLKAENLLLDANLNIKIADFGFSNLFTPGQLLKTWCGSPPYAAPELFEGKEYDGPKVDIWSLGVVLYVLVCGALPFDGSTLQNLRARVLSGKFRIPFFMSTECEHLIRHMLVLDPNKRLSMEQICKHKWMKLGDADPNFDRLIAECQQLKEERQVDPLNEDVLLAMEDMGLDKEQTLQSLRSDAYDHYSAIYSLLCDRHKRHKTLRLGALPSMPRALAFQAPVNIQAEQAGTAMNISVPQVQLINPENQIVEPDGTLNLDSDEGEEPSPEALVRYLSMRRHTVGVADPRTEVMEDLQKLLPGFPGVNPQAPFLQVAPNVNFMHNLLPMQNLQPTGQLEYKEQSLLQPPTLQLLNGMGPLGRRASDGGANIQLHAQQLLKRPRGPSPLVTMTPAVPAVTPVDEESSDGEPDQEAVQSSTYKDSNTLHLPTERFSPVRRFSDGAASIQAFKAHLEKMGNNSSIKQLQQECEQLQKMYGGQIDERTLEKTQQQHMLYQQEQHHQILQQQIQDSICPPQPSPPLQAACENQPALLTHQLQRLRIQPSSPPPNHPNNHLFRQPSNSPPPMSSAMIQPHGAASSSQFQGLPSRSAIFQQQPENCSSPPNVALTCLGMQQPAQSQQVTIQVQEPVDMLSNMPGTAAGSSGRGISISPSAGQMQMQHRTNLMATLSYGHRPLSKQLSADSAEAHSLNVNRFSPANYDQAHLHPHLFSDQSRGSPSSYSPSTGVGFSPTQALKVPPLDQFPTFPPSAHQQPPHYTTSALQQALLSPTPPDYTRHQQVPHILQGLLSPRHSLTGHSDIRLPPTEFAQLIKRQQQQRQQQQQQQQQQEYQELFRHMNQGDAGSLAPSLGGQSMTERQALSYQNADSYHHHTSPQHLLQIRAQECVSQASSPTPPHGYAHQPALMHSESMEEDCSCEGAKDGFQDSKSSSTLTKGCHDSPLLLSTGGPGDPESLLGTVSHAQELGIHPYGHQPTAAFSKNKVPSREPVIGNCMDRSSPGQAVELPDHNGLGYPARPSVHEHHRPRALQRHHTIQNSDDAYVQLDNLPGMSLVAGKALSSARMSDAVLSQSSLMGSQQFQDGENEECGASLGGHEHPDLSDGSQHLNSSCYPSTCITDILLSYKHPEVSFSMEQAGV
WNK1 (human), sequence (Q9H4A3 whole entry, looked up): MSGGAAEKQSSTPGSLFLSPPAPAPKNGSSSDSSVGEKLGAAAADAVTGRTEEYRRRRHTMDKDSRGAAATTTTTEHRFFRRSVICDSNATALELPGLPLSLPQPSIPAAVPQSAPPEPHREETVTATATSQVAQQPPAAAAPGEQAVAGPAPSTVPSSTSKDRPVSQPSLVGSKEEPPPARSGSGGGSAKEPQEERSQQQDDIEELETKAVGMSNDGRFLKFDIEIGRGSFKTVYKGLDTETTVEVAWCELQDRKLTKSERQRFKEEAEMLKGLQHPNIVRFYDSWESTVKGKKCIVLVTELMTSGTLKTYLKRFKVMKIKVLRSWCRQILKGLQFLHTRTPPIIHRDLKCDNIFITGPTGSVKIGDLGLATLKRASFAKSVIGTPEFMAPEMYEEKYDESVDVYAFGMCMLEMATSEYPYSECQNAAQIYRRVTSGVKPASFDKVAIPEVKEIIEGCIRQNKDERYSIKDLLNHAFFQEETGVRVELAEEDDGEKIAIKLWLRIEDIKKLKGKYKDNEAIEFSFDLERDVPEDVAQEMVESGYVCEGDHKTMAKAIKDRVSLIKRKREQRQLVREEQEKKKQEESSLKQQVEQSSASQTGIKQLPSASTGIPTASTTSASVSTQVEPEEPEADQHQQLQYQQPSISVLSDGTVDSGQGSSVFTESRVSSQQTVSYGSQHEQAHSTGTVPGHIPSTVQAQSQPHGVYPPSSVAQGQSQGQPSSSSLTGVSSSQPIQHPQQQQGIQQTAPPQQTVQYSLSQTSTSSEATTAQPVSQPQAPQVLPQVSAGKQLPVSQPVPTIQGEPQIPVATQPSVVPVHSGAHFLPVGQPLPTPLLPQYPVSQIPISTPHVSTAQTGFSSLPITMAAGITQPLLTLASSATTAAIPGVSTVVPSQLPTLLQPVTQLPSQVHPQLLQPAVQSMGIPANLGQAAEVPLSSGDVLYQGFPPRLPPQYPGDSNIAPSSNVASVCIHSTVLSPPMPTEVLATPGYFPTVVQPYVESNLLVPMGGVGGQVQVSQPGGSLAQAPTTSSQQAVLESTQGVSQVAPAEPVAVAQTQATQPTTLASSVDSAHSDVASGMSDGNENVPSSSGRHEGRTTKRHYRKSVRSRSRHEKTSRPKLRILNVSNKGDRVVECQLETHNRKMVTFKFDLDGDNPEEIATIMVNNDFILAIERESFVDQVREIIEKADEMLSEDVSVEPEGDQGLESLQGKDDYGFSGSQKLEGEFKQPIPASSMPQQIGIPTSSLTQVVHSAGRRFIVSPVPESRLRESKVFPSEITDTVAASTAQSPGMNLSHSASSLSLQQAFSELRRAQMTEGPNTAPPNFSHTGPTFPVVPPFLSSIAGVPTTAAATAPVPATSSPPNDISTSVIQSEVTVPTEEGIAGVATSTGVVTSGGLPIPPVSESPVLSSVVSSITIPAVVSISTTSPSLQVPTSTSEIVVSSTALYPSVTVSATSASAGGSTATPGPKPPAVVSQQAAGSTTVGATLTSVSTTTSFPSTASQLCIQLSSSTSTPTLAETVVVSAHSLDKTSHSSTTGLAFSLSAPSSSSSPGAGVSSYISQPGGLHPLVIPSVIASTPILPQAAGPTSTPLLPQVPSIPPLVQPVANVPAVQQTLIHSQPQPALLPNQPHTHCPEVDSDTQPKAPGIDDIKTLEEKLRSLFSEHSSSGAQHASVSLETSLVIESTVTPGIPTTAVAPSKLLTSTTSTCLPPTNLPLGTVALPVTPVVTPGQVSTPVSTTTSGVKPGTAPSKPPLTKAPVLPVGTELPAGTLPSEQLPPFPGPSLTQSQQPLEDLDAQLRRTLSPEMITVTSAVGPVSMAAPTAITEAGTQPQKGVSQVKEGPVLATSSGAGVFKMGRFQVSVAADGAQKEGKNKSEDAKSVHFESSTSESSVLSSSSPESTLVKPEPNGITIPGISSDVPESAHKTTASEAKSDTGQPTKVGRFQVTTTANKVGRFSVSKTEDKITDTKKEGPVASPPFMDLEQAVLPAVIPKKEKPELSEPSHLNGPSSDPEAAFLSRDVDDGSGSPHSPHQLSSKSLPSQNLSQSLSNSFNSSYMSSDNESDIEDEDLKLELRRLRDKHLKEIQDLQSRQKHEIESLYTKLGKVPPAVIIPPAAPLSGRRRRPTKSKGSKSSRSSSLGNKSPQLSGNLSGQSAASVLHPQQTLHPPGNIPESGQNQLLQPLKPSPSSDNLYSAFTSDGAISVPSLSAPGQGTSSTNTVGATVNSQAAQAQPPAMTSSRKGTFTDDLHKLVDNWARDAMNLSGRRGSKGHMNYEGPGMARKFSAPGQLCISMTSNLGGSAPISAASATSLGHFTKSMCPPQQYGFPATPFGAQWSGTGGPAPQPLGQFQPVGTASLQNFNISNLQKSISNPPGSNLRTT

Structure (SMILES): CC1=C(CO)C(=O)O[C@@H]([C@@H](C)[C@H]2CC[C@H]3[C@@H]4C[C@H]5O[C@]56[C@@H](O)C=CC(=O)[C@]6(C)C4CC[C@]23C)C1 (some centres not stated)
- residual activity ([1]; compound 0.1 µM): 101%
- residual activity ([1]; compound 1.0 µM): 110%
- residual activity ([1]; compound 10.0 µM): 106%
- residual activity ([2]; compound 0.1 µM): 101%
- residual activity ([2]; compound 1.0 µM): 103%
- residual activity ([2]; compound 10.0 µM): 98%
- residual activity [3]: 113%
- residual activity ([4]; compound 1.0 µM): 117%
- residual activity ([4]; compound 10.0 µM): 121%
- residual activity ([5]; compound 0.1 µM): 108%
- residual activity ([5]; compound 1.0 µM): 115%
- residual activity ([5]; compound 10.0 µM): 111%
- residual activity ([6]; compound 0.1 µM): 92%
- residual activity ([6]; compound 1.0 µM): 96%
- residual activity ([6]; compound 10.0 µM): 90%
- residual activity ([7]; compound 0.1 µM): 109%
- residual activity ([7]; compound 1.0 µM): 123%
- residual activity ([8]; compound 0.1 µM): 108%
- residual activity ([8]; compound 1.0 µM): 86%
- residual activity ([8]; compound 10.0 µM): 10%
- residual activity ([9]; compound 0.1 µM): 100%
- residual activity ([9]; compound 1.0 µM): 102%
- residual activity ([9]; compound 10.0 µM): 78%
- residual activity ([10]; compound 0.1 µM): 81%
- residual activity ([10]; compound 1.0 µM): 85%
- residual activity ([10]; compound 10.0 µM): 84%
- residual activity [11]: 126%
- residual activity ([12]; compound 0.1 µM): 100%
- residual activity ([12]; compound 1.0 µM): 118%
- residual activity ([12]; compound 10.0 µM): 95%
- residual activity ([13]; compound 0.1 µM): 109%
- residual activity ([13]; compound 1.0 µM): 114%
- residual activity ([13]; compound 10.0 µM): 104%
- residual activity ([14]; compound 0.1 µM): 106%
- residual activity ([14]; compound 1.0 µM): 110%
- residual activity ([14]; compound 10.0 µM): 94%
- residual activity ([15]; compound 0.1 µM): 105%
- residual activity ([15]; compound 1.0 µM): 100%
- residual activity ([15]; compound 10.0 µM): 94%
- residual activity ([16]; compound 0.1 µM): 110%
- residual activity ([16]; compound 1.0 µM): 112%
- residual activity ([16]; compound 10.0 µM): 105%
- residual activity ([17]; compound 0.1 µM): 111%
- residual activity ([17]; compound 1.0 µM): 126%
- residual activity ([17]; compound 10.0 µM): 133%
- residual activity ([18]; compound 0.1 µM): 109%
- residual activity ([18]; compound 1.0 µM): 104%
- residual activity ([18]; compound 10.0 µM): 103%
- residual activity ([19]; compound 0.1 µM): 105%
- residual activity ([19]; compound 1.0 µM): 106%
- residual activity ([19]; compound 10.0 µM): 94%
- residual activity ([20]; compound 0.1 µM): 129%
- residual activity ([20]; compound 1.0 µM): 108%
- residual activity ([20]; compound 10.0 µM): 115%
- residual activity ([21]; compound 1.0 µM): 98%
- residual activity ([21]; compound 10.0 µM): 83%
- residual activity ([22]; compound 0.1 µM): 119%
- residual activity ([22]; compound 1.0 µM): 112%
- residual activity ([22]; compound 10.0 µM): 102%
- residual activity ([23]; compound 0.1 µM): 117%
- residual activity ([23]; compound 1.0 µM): 111%
- residual activity ([23]; compound 10.0 µM): 113%
- residual activity ([24]; compound 0.1 µM): 128%
- residual activity ([24]; compound 1.0 µM): 109%
- residual activity ([24]; compound 10.0 µM): 125%
- residual activity ([25]; compound 0.1 µM): 82%
- residual activity ([25]; compound 1.0 µM): 78%
- residual activity ([25]; compound 10.0 µM): 66%
- residual activity ([26]; compound 0.1 µM): 116%
- residual activity ([26]; compound 10.0 µM): 120%
- residual activity ([27]; compound 0.1 µM): 94%
- residual activity ([27]; compound 1.0 µM): 97%
- residual activity ([27]; compound 10.0 µM): 107%
- residual activity ([28]; compound 0.1 µM): 107%
- residual activity ([28]; compound 1.0 µM): 120%
- residual activity ([28]; compound 10.0 µM): 112%
- residual activity ([29]; compound 0.1 µM): 101%
- residual activity ([29]; compound 1.0 µM): 99%
- residual activity ([29]; compound 10.0 µM): 100%
- residual activity ([30]; compound 0.1 µM): 108%
- residual activity ([30]; compound 1.0 µM): 105%
- residual activity ([30]; compound 10.0 µM): 112%
